Tests used:
[1] = target: Tb-labeled inactive PDGFRβ (Homo sapiens (Human), UniProt P09619); assay: PDGFRβ LanthaScreen Assay; format: binding; conditions: read-out: PDGFR Lantha IC50
[2] = target: His6-TEV-PDGFRβ (557-1016) (Homo sapiens (Human), UniProt P09619); assay: PDGFRβ HTRF Assay; format: biochemical; conditions: read-out: PDGFR HTRF IC50
Procedure, shortened: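 HTRF KinEASE-TK readout (665/620 nm ratio) of TK-biotin substrate phosphorylation by His-tagged PDGFRβ kinase domain. Enzyme and inhibitor preincubated 30 min, then ATP/substrate added for 3 h at room temperature before 60 min EDTA quench/detection.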

VEGFR2, unphosphorylated = VEGFR2, unphosphorylated (Homo sapiens (Human), UniProt P35968); assay: VEGFR ADP GLO Assay; format: biochemical
VEGFR2, unphosphorylated, sequence (P35968 20-1356): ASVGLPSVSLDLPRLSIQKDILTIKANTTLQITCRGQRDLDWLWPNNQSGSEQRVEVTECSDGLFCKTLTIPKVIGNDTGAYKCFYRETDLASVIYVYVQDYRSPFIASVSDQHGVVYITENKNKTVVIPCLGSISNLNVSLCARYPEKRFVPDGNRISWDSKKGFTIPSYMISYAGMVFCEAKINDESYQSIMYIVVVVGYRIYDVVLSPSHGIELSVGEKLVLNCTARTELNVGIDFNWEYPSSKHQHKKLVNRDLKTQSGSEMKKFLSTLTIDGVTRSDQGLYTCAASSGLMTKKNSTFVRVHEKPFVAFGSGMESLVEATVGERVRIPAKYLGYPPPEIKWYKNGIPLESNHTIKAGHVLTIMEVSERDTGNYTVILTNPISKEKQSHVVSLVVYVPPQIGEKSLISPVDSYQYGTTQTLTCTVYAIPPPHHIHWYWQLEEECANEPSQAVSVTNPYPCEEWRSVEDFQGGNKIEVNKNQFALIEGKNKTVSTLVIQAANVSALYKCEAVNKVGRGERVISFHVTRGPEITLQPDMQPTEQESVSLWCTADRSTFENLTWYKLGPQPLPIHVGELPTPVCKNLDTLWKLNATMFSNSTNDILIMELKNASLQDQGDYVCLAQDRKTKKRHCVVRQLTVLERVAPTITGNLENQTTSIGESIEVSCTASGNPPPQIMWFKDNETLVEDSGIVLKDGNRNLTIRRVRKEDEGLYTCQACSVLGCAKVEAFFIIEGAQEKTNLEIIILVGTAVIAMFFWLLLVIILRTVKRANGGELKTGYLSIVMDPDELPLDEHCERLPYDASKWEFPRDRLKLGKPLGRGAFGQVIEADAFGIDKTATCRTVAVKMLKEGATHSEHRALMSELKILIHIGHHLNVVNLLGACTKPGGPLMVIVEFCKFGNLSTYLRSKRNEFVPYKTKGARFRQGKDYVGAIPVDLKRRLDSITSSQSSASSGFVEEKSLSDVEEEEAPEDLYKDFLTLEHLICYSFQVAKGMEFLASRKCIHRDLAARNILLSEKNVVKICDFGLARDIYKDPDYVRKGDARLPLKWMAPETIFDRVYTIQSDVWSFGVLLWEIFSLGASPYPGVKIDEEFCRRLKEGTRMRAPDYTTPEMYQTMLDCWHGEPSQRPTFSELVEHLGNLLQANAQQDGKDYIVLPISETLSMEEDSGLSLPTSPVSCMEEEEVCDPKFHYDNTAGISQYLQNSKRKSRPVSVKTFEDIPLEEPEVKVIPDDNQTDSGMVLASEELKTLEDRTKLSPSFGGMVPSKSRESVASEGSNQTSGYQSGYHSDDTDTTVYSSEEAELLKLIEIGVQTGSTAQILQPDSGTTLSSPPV

Tb-labeled inactive PDGFRβ, sequence (P09619 33-1106): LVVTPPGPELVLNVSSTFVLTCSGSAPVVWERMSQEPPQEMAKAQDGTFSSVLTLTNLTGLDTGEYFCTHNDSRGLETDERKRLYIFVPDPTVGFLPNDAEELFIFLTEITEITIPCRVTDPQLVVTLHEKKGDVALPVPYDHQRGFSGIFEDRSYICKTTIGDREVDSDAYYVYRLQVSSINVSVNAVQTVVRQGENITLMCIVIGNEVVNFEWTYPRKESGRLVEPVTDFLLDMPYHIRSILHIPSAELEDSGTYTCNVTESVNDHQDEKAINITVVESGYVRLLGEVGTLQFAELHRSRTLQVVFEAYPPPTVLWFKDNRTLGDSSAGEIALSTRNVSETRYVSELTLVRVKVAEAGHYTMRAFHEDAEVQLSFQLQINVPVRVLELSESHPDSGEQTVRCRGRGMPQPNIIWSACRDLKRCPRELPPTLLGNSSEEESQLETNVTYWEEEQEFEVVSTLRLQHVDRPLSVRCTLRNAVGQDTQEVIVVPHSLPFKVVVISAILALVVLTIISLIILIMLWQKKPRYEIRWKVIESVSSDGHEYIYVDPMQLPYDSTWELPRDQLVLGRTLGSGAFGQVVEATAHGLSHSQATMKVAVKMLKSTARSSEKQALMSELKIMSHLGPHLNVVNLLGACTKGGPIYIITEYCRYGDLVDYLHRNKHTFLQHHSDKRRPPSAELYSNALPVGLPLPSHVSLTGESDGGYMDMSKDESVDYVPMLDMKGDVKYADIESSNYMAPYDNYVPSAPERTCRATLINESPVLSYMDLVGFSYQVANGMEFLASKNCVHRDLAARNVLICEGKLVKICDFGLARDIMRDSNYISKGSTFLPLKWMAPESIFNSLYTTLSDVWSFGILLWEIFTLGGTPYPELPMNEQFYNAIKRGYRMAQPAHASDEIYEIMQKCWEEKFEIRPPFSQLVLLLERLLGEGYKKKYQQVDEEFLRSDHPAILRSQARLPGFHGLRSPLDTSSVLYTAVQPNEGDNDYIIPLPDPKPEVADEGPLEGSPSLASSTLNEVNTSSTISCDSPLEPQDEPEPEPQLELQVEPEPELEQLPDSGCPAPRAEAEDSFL
His6-TEV-PDGFRβ (557-1016), sequence (P09619 557-1016): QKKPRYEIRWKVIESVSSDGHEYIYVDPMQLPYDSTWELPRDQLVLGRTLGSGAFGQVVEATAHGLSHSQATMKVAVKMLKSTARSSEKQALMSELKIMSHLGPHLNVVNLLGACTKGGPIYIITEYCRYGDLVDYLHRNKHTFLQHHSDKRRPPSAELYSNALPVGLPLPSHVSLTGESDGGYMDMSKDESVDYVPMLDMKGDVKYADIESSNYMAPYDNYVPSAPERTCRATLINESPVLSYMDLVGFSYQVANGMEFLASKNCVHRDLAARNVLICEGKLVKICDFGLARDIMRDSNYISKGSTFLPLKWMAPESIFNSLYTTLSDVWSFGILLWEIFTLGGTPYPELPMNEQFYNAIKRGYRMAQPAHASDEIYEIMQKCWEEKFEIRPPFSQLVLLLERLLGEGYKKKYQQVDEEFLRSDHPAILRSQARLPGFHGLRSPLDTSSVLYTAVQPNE

Cc1ncc(NC(=O)[C@@H]2CCCN3CCCC[C@H]23)cc1NC(=O)c1cnn2cc(-c3cnn(C)c3)sc12 [Example 308, 2-(1-methyl-1H-pyrazol-4-yl)-N-(2-methyl-5-((1R,9aR)-octahydro-2H-quinolizine-1-carboxamido)pyridin-3-yl)pyrazolo[5,1-b]thiazole-7-carboxamide]
IC50 [1]: 710 nM | IC50 [2]: 20.9 nM | IC50 (VEGFR2, unphosphorylated): > 7500 nM

Cc1ncc(NC(=O)CN2CC(C)(C)C2)cc1NC(=O)c1cnn2cc(-c3c[nH]c4ccccc34)sc12 [Example 287, N-(5-(2-(3,3-dimethylazetidin-1-yl)acetamido)-2-methylpyridin-3-yl)-2-(1H-indol-3-yl)pyrazolo[5,1-b]thiazole-7-carboxamide]
IC50 [1]: 0.8 nM | IC50 [2]: 0.1 nM | IC50 (VEGFR2, unphosphorylated): 1740 nM

Cc1ncc(NC(=O)CN(C)C2CCOCC2)cc1NC(=O)c1cnn2cc(-c3cnn(CS(C)(=O)=O)c3)sc12 [Example 298, N-(2-methyl-5-(2-(methyl(tetrahydro-2H-pyran-4-yl)amino)acetamido)pyridin-3-yl)-2-(1-((methylsulfonyl)methyl)-1H-pyrazol-4-yl)pyrazolo[5,1-b]thiazole-7-carboxamide]
IC50 [1]: 6.4 nM | IC50 [2]: 0.9 nM | IC50 (VEGFR2, unphosphorylated): > 7500 nM

Cc1ncc(NC(=O)C(C)N2CCCCCC2)cc1NC(=O)c1cnn2cc(-c3cnn(C)c3)sc12 (stereo not drawn) [Example 306, N-(5-(2-(azepan-1-yl)propanamido)-2-methylpyridin-3-yl)-2-(1-methyl-1H-pyrazol-4-yl)pyrazolo[5,1-b]thiazole-7-carboxamide]
IC50 [1]: 9 nM | IC50 [2]: 0.5 nM | IC50 (VEGFR2, unphosphorylated): > 7500 nM

Cc1ncc(NC(=O)CN(C)C2CCOCC2)cc1NC(=O)c1cnn2cc(-c3cnn(C(C)C#N)c3)sc12 (stereo not drawn) [Example 297, 2-(1-(1-cyanoethyl)-1H-pyrazol-4-yl)-N-(2-methyl-5-(2-(methyl(tetrahydro-2H-pyran-4-yl)amino)acetamido)pyridin-3-yl)pyrazolo[5,1-b]thiazole-7-carboxamide]
IC50 [1]: 8.6 nM | IC50 [2]: 0.7 nM | IC50 (VEGFR2, unphosphorylated): > 7500 nM

Cc1ncc(NC(=O)CN(C)C2CCOCC2)cc1NC(=O)c1cnn2cc(-c3cnn(C4CCC4)c3)sc12 [Example 296, 2-(1-cyclobutyl-1H-pyrazol-4-yl)-N-(2-methyl-5-(2-(methyl(tetrahydro-2H-pyran-4-yl)amino)acetamido)pyridin-3-yl)pyrazolo[5,1-b]thiazole-7-carboxamide]
IC50 [1]: 3.7 nM | IC50 [2]: 0.3 nM | IC50 (VEGFR2, unphosphorylated): > 7500 nM

COc1ncccc1-c1cn2ncc(C(=O)Nc3cc(NC(=O)C4CCCCN4C(C)C)cnc3C)c2s1 (stereo not drawn) [Example 315, N-(5-(1-isopropylpiperidine-2-carboxamido)-2-methylpyridin-3-yl)-2-(2-methoxypyridin-3-yl)pyrazolo[5,1-b]thiazole-7-carboxamide]
IC50 [1]: 4.6 nM | IC50 [2]: 0.3 nM | IC50 (VEGFR2, unphosphorylated): 4990 nM

Cc1ncc(NC(=O)CN2CC(C)(C)C2)cc1NC(=O)c1cnn2cc(-c3cnn(C4CCS(=O)(=O)CC4)c3)sc12 [Example 280, N-(5-(2-(3,3-dimethylazetidin-1-yl)acetamido)-2-methylpyridin-3-yl)-2-(1-(1,1-dioxidotetrahydro-2H-thiopyran-4-yl)-1H-pyrazol-4-yl)pyrazolo[5,1-b]thiazole-7-carboxamide]
IC50 [1]: 4.3 nM | IC50 [2]: 0.3 nM | IC50 (VEGFR2, unphosphorylated): > 7500 nM

Cc1ncc(NC(=O)CN2CCCC3(COC3)C2)cc1NC(=O)c1cnn2cc(-c3cnn(C)c3)sc12 [Example 24, N-(5-(2-(2-oxa-6-azaspiro[3.5]nonan-6-yl)acetamido)-2-methylpyridin-3-yl)-2-(1-methyl-1H-pyrazol-4-yl)pyrazolo[5,1-b]thiazole-7-carboxamide]
IC50 [1]: 4.5 nM | IC50 [2]: 0.7 nM | IC50 (VEGFR2, unphosphorylated): > 7500 nM

— US20240109917A1 (ACTELION PHARMACEUTICALS LTD, priority 2020, published 2024)
